The source of these data is patent US20150275180A1, “Chemical preconditioning process for cell material to obtain chemical epigenetic reprogramming and pluripotency expression” (priority 2012, published 2015).

Assay [1] concerns human dermal skin fibroblasts. Put plainly: Comparative analysis of HBR, its grafting moieties alone or as a mixture, on stemness gene expression. It is filed as cell-based. The conditions noted are these: 12 hours, 2.0 mg/ml HBR, 1.5 mg/ml HA, 2.5 mM BU, 10^-8M RA, hydrolyzed HBR 2 mg/ml. The procedure: FIG. 6 is the comparative analysis of the effect of HBR, or its grafting moieties alone or as a mixture, on the expression of sternness-related genes in human dermal skin fibroblasts: cells were incubated for 12 hours in the absence or presence of 2.0 mg/ml HBR, 1.5 mg/ml HA, 2.5 mM BU, or 10^-8M RA, or exposed to a hydrolyzed (HY) HBR solution (2 mg/ml), obtained from a 2-h basic HBR hydrolysis followed by pH neutralization. This procedure affords a complete release of each single HBR grafted moiety, leading to the formation of a mixture of HA, BU, and RA, with each molecule in the concentration range reported above for the experiments based on cell incubation in the presence of each molecule alone. The amount of each transcript from exposed or unexposed cells was normalized to HPRT1, and the mRNA expression of exposed cells was plotted at each time point as fold change relative to the expression in control unexposed cells, defined as 1 (mean±S.E.; n=6).
This procedure affords a complete release of each single HBR grafted moiety, leading to the formation of a mixture of HA, BU, and RA, with each molecule in the concentration range reported above for the experiments based on (stem) cell incubation in the presence of each molecule alone.

The test system of assay [2] is Lipogems-derived hASCs. The following applies: 2 mg/ml HBR. The source says:
(§1) A, Sox2; B, Oct4; C, Nanog. The amount of each transcript from exposed or unexposed cells was normalized to HPRT1, and the mRNA expression of exposed cells was plotted at each time point as fold change relative to the expression in control unexposed cells, defined as 1 (mean±S.E.; n=6);

For assay [3], the system named is human dermal skin fibroblasts. The conditions noted are these: 2 mg/ml HBR.
From the text: as §1

Assay [4] concerns Lipogems-derived hASCs. The conditions noted are these: 2 mg/ml HBR, 7-day treatment. The source says:
(§2) A, GATA4; B, Nkx2.5; C, neurogenin1; D, VEGF; E, MyoD. The amount of each transcript from exposed or unexposed cells was normalized to HPRT1, and the mRNA expression of exposed cells was plotted at each time point as fold change relative to the expression in control unexposed cells, defined as 1 (mean±S.E.; n=6);

For assay [5], the system named is human dermal skin fibroblasts. The conditions noted are these: 2 mg/ml HBR, 7-day treatment.
From the text: as §2

Assay [6] concerns human dermal skin fibroblasts. The conditions noted are these: HBR 2 mg/ml for 14 days, confocal microscopy. The source says:
Scale bars are 40 μm. Representative of six separate experiments;

Another assay deals with human skin fibroblasts. The conditions noted are these: 14 days, 2 mg/ml HBR, mean±S.E., n=6.
Assay [7] deals with Lipogems-derived hASCs. The conditions noted are these: 14 days, 2 mg/ml HBR, mean±S.E., n=6.
Assay [8] deals with Lipogems-derived hASCs. The following applies: HBR for 14 days, confocal microscopy.
Assay [9] has as its system adult rat cardiac ventricular cardiomyocytes. The following applies: in vitro HBR treatment; cited from earlier work.
Assay [10] concerns Stro-1 positive rat mesenchymal stem cells. The following applies: in vitro HBR treatment; cited from earlier work.
Where [11] appears, read: later times of exposure (7-day treatment).
Where [12] appears, read: within the first 12-24 hours of a 7-day treatment.

Like-named read-outs stand apart in the source and are kept apart here.

For hyaluronic acid [HA], the “transcription of the stemness/pluripotency genes Sox2, Nanog and Oct4 versus unexposed control” value in [1] was “significantly increased”.
On the same count and under the same terms, under `CCCC(=O)O` [BU, butyric acid] stands “significantly increased”.
On to “hyaluronic acid esterified with butyric and retinoic acids [HBR]”, for which the “transcription of stemness-related genes Nanog, Sox2, Oct4” value (shortened to “transcription … Sox2, Oct4”) in the assay with Lipogems-derived hASCs [2] (setting [11]) is listed as “down-regulation”. Moreover, in the assay with Lipogems-derived hASCs [2] (setting [12]), the “transcription … Sox2, Oct4” value is recorded as “significantly enhanced”. Further, in [3] (setting [11]), the “transcription … Sox2, Oct4” value is reported as “down-regulation”. For the same compound, the “transcription … Sox2, Oct4” value in assay [3] (setting [12]) is “significantly enhanced”. Further, the “gene expression of GATA4, Nkx2.5, VEGF, neurogenin-1 and myoD” value in the assay with Lipogems-derived hASCs [4] was “significantly enhanced”. In addition, the “gene expression of GATA4, Nkx2.5, VEGF, neurogenin-1 and myoD” value in [5] was “significantly enhanced”. In addition, in assay [6], the “expression of tissue restricted marker proteins (α-myosin heavy chain, α-sarcomeric actinin, β-3 tubulin, vWF, myoD)” value is given as “appearance of cells expressing”. For the same compound, the “transcription of the stemness/pluripotency genes Sox2, Nanog and Oct4 versus unexposed control” value in assay [1] is reported as “significantly higher levels”. Further, in the assay with human skin fibroblasts, the “cells expressing vWF (endothelial marker)” value is given as 18.0±2.6, the “cells expressing β-3-tubulin (neuronal determination marker)” value was found to be 12.30±2.7%, the “percentage of myoD (skeletal muscle)-positive elements” value is 14.00±3.00% and the “percentage of α-sarcomeric actinin (myocardial)-positive elements” value amounted to 28.00±3.40%. For the same compound, in the assay with Lipogems-derived hASCs [7], the “cells expressing α-sarcomeric actinin” value was determined as 31.0±2.8%, the myoD positive cells is 12.4±2.0%, the vWF positive cells worked out at 22.2±3.0% and the β-3-tubulin expressing cells worked out at 14.0±2.1%. Moreover, the “expression of tissue restricted marker proteins (α-myosin heavy chain, α-sarcomeric actinin, β-3 tubulin, vWF, myoD)” value in the assay with Lipogems-derived hASCs [8] is reported as “appearance of cells expressing”. For the same compound, the “histone H4 acetylation compared with untreated cells” value in assay [9] is on record as “significant increase”. Besides, the “histone H4 acetylation compared with untreated cells” value in assay [10] is on record as “significant increase”.
